28 molecules from patent US7432276B2, “ABCA1 elevating compounds” (CV Therapeutics, Inc., priority 2005, dated 2008) can be followed below.

The first assay concerns ABCA1 mRNA. Kind of assay: ABCA1 mRNA induction in THP-1 cells, QuantiGene branched DNA assay. Format: cell-based. As to conditions: 10 μM test compound, 18-20 hours. As for the experimental part:
Modulation of expression of ABCA1 mRNA levels by the compounds of the invention was determined in the following assays.
Induction of ABC1 in THP-1 cells, was measured using QuantiGene® branched DNA assay as per manufacturer's instructions. Cultures of THP-1 were grown to subconfluence in DMEM/10% FBS before replacement with DMEM/BSA and 10 and 3 μM concentrations of the test compounds in DMSO for 18-20 hours. After treatment of cells with compounds, the cells were lysed with lysis buffer at 37° C. for 20 minutes. The cell lysate and ABCA1 specific probe (Genospectra, Inc., Fremont, Calif.) mix were added to the 96 well capture plate and hybridized at 53° C. for 16-18 hours. The signal was amplified using the amplifier and label probes provided with the QuantiGene® assay followed by addition of a luminescent alkaline phosphatase substrate, dioxitane. Luminescence was quantified in Victor V plate reader.
Step 1 • Cells are lysed to release mRNA in the presence of target probes. Target mRNA from lysed cells was then captured by hybridization and transferred to the Capture Plate.
Step 2 • Signal amplification was performed by hybridization of the bDNA Amplifier and Label Probe.
Step 3 • Addition of chemiluminescence substrate yielded a QuantiGene® signal proportional to the amount of mRNA present in the sample.
Table 1 presents the relative fold increase in ABCA1 expression over DMSO for various compounds of the invention when tested at a concentration of […].
Consider `COc1cccc2c1[C@H]1Nc3ccc(-c4ccc(CCC(=O)O)cc4)cc3C(C)(C)[C@H]1CO2` [Number 114, 3-[4-((12aS,6aR)-1-methoxy-7,7-dimethyl-7,12,12a,6a-tetrahydrochromano[4,3-b]quinolin-9-yl)phenyl]propanoic acid], for which the “ABCA1 Induction Fold Increase over DMSO Vehicle” value (“ABCA1 Induction Fold Increase” for short) stood at 2.7 FOLD INCREASE.

Regarding `COc1cccc2c1[C@H]1Nc3ccc(-c4ccc(C(=O)O)cc4)cc3C(C)(C)[C@H]1CO2` [Number 106, 4-((12aS,6aR)-1-methoxy-7,7-dimethyl-7,12,12a,6a-tetrahydrochromano[4,3-b]quinolin-9-yl)benzoic acid], the “ABCA1 Induction Fold Increase” value is 4.8 FOLD INCREASE.

For the molecule `Cc1cccc2c1OCC1C2Nc2ccc(C(N)=O)cc2C1(C)C` (stereo not shown) [Number 29, 4,7,7-trimethyl-7,12,12a,6a-tetrahydrochromano[4,3-b]quinoline-9-carboxamide], the “ABCA1 Induction Fold Increase” value came to 5.8 FOLD INCREASE.

On to `Cc1cccc2c1OCC1[C@@H]2Nc2ccccc2C1(C)C` (stereo partly drawn) [Number 32, (12aS)-4,7,7-trimethyl-7,12,12a,6a-tetrahydrochromano[4,3-b]quinoline], for which the “ABCA1 Induction Fold Increase” value was found to be 4.9 FOLD INCREASE.

`CC(C)=CCOc1cccc2c1OCC1C2Nc2ccc(C(O)(C(F)(F)F)C(F)(F)F)cc2C1(C)C` (stereo not shown) [Number 25, 2-[7,7-dimethyl-4-(3-methylbut-2-enyloxy)(7,12,12a,6a-tetrahydrochromano[4,3-b]quinolin-9-yl)]-1,1,1,3,3,3-hexafluoropropan-2-ol]: the “ABCA1 Induction Fold Increase” value is recorded as 4.0 FOLD INCREASE.

On to `COc1cccc2c1[C@H]1Nc3ccc(-c4nnn[nH]4)cc3C(C)(C)[C@H]1CO2` [Number 71, (12aS,6aR)-1-methoxy-7,7-dimethyl-9-(1,2,3,4-tetraazol-5-yl)-7,12,12a,6a-tetrahydrochromano[4,3-b]quinoline], for which the “ABCA1 Induction Fold Increase” value amounted to 9.5 FOLD INCREASE.

In the case of `CCOc1cccc2c1OCC1C2Nc2ccc(C(F)(F)F)cc2C1(C)C` (stereo not shown) [Number 41, 4-ethoxy-7,7-dimethyl-9-(trifluoromethyl)-7,12,12a,6a-tetrahydrochromano[4,3-b]quinoline], the “ABCA1 Induction Fold Increase” value is reported as 2.1 FOLD INCREASE.

In the case of `Cc1cccc2c1OCC1C2Nc2ccc(C(O)(C(F)(F)F)C(F)(F)F)cc2C1(C)C` (stereo not shown) [Number 18, 1,1,1,3,3,3-hexafluoro-2-(4,7,7-trimethyl(7,12,12a,6a-tetrahydrochromano[4,3-b]quinolin-9-yl))propan-2-ol], the “ABCA1 Induction Fold Increase” value was 5.3 FOLD INCREASE.

As to `COc1cccc2c1OC[C@@H]1[C@H]2Nc2ccc(OC(F)(F)F)cc2C1(C)C` [Number 52, ((6aS,12aR)-4-methoxy-7,7-dimethyl(7,12,12a,6a-tetrahydrochromano[4,3-b]quinolin-9-yloxy))trifluoromethane], the “ABCA1 Induction Fold Increase” value stood at 9.5 FOLD INCREASE.

`COc1ccccc1-c1ccc2c(c1)C(C)(C)C1COc3c(OC)cc(Cl)cc3C1N2` (stereo not shown) [Number 100, 1-(2-chloro-4-methoxy-7,7-dimethyl(7,12,12a,6a-tetrahydrochromano[4,3-b]quinolin-9-yl))-2-methoxybenzene]: the “ABCA1 Induction Fold Increase” value amounted to 3.0 FOLD INCREASE.

As for `CNS(=O)(=O)Cc1ccc2c(c1)C(C)(C)C1COc3c(OC)cccc3C1N2` (stereo not shown) [Number 59, {[(4-methoxy-7,7-dimethyl(7,12,12a,6a-tetrahydrochromano[4,3-b]quinolin-9-yl))methyl]sulfonyl}methylamine], the “ABCA1 Induction Fold Increase” value stood at 6.1 FOLD INCREASE.

For the molecule `CCOc1ccc2c(c1)C(C)(C)C1COc3c(OC)ccc(Br)c3C1N2` (stereo not shown) [Number 78, 1-bromo-9-ethoxy-4-methoxy-7,7-dimethyl-7,12,12a,6a-tetrahydrochromano[4,3-b]quinoline], the “ABCA1 Induction Fold Increase” value is 2.7 FOLD INCREASE.

As for `CC(C)=CCOC(=O)c1ccc2c(c1)OC[C@@H]1[C@H]2Nc2ccc(B(O)O)cc2C1(C)C` [Number 10, 3-methylbut-2-enyl (6aS,12aR)-9-(dihydroxyboramethyl)-7,7-dimethyl-7,12,12a,6a-tetrahydrochromano[4,3-b]quinoline-3-carboxylate], the “ABCA1 Induction Fold Increase” value is listed as 1.5 FOLD INCREASE.

`COc1cccc2c1[C@H]1Nc3ccc(-c4nc(C(=O)N5CCS(=O)(=O)CC5)co4)cc3C(C)(C)[C@H]1CO2` [Number 148, 2-((6aR,12aS)-1-methoxy-6a,7,12,12a-tetrahydro-7,7-dimethyl-6H-chromeno[4,3-b]quinolin-9-yl)oxazole-(4-(1,1-dione-1,4-thiazaperhydroin-yl)methanone)]: the “ABCA1 Induction Fold Increase” value is reported as 11 FOLD INCREASE.

As for `COc1ccc(-c2ccc3c(c2)C(C)(C)[C@H]2COc4cccc(OC)c4[C@H]2N3)cc1` [Number 112, 1-((12aS,6aR)-1-methoxy-7,7-dimethyl(7,12,12a,6a-tetrahydrochromano[4,3-b]quinolin-9-yl))-4-methoxybenzene], the “ABCA1 Induction Fold Increase” value is listed as 1.7 FOLD INCREASE.

On to “methylethyl 3-(4-methoxy-7,7-dimethyl-7,12-dihydro-6H-chromeno[4,3-b]quinolin-9-yl)benzoate [Number 61]”, for which the “ABCA1 Induction Fold Increase” value stood at 2.0 FOLD INCREASE.

As for `COc1cccc2c1[C@H]1Nc3ccc(-c4csnn4)cc3C(C)(C)[C@H]1CO2` [Number 73, (12aS,6aR)-1-methoxy-7,7-dimethyl-9-(1,2,3-thiadiazol-4-yl)-7,12,12a,6a-tetrahydrochromano[4,3-b]quinoline], the “ABCA1 Induction Fold Increase” value stood at 8.0 FOLD INCREASE.

Consider `CCOP(=O)(Cc1ccc2c(c1)C(C)(C)C1COc3c(OC)cc(Cl)cc3C1N2)OCC` (stereo not shown) [Number 91, [(2-chloro-4-methoxy-7,7-dimethyl(7,12,12a,6a-tetrahydrochromano[4,3-b]quinolin-9-yl))methyl]diethoxyphosphino-1-one], for which the “ABCA1 Induction Fold Increase” value is 6.2 FOLD INCREASE.

Consider `CCOC(=O)c1ccc(-c2ccc3c(c2)C(C)(C)[C@H]2COc4cccc(OC)c4[C@H]2N3)cc1` (relative stereo) [Number 107, ethyl 4-((12aS,6aR)-1-methoxy-7,7-dimethyl-7,12,12a,6a-tetrahydrochromano[4,3-b]quinolin-9-yl)benzoate], for which the “ABCA1 Induction Fold Increase” value is listed as 2.9 FOLD INCREASE.

The same assay, now with this note: Homo sapiens, 10 μM test compound, 18-20 hours, read-out: ABCA1 Induction Fold Increase over DMSO Vehicle.
Consider `COc1ccc2c(c1)C(C)(C)[C@H]1COc3cccc(OC)c3[C@H]1N2Cc1ccccc1` [Number 158, (6aR,12aS)-12-benzyl-6a,7,12,12a-tetrahydro-1,9-dimethoxy-7,7-dimethyl-6H-chromeno[4,3-b]quinoline], for which the fold induction at 10 µM worked out at 9.2.

As to `CCCN1c2ccccc2C(C)(C)[C@H]2COc3cccc(OC)c3[C@H]21` [Number 172, (6aR,12aS)-12-propyl-6a,7,12,12a-tetrahydro-1-methoxy-7,7-dimethyl-6H-chromeno[4,3-b]quinoline], the fold induction at 10 µM worked out at 1.7.

Consider `COc1cc(-c2cn[nH]c2)cc2c1OC[C@@H]1[C@@H]2Nc2ccc(-c3cnco3)cc2C1(C)C` [Number 160, (6aS,12aS)-6a,7,12,12a-tetrahydro-4-methoxy-7,7-dimethyl-9-(oxazol-5-yl)-2-(1H-pyrazol-4-yl)-6H-chromeno[4,3-b]quinoline], for which the fold induction at 10 µM stood at 4.7.

On to `COc1cccc2c1[C@H]1Nc3ccc(-n4ncc(C(=O)O)c4C)cc3C(C)(C)[C@H]1CO2` [Number 118, 1-((6aR,12aS)-6a,7,12,12a-tetrahydro-1-methoxy-7,7-dimethyl-6H-chromeno[4,3-b]quinolin-9-yl)-5-methyl-1H-pyrazole-4-carboxylic acid], for which the fold induction at 10 µM turned out to be 4.

Take `COc1cccc2c1[C@H]1Nc3ccc(C(=O)N(C)C)cc3C(C)(C)[C@H]1CO2` [Number 123, (6aR,12aS)-6a,7,12,12a-tetrahydro-1-methoxy-N,N,7,7-tetramethyl-6H-chromeno[4,3-b]quinoline-9-carboxamide]: the fold induction at 10 µM was determined as 6.5.

Consider `COc1cccc2c1OC[C@H]1[C@@H]2Nc2ccc(-c3nc(C(=O)O)co3)cc2C1(C)C` [Number 146, 2-((6aR,12aS)-6a,7,12,12a-tetrahydro-4-methoxy-7,7-dimethyl-6H-chromeno[4,3-b]quinolin-9-yl)oxazole-4-carboxylic acid], for which the fold induction at 10 µM came out at 8.2.

For the molecule `CC1(C)c2cc(C(=O)N3CCNCC3)ccc2N[C@@H]2c3c(F)cccc3OC[C@@H]21` [Number 130, ((6aR,12aS)-1-fluoro-6a,7,12,12a-tetrahydro-7,7-dimethyl-6H-chromeno[4,3-b]quinolin-9-yl)(piperazin-1-yl)methanone], the fold induction at 10 µM came out at 4.2.

Regarding `COc1ccccc1-c1ccc2c(c1)C(C)(C)C1=C(c3cccc(F)c3OC1)N2O` [Number 104, 4-fluoro-9-(2-methoxyphenyl)-7,7-dimethyl-7,12-dihydro-6H-chromeno[4,3-b]quinolin-12-ol], the fold induction at 10 µM was 2.9.

With `CCCN1c2ccccc2C(C)(C)[C@@H]2COc3cccc(OC)c3[C@H]21` [Number 173, (6aS,12aS)-12-propyl-6a,7,12,12a-tetrahydro-1-methoxy-7,7-dimethyl-6H-chromeno[4,3-b]quinoline], the fold induction at 10 µM was found to be 1.8.
